Reference: patent publication US9119398B2, “Plant growth regulating compounds” (Syngenta Participations AG, priority 2012, dated 2015)

Experiments:
[1] = test system: Orobanche cumana Wallr. seeds; test: Germination of preconditioned Orobanche cumana seeds on glass fiber filter paper in petri dishes; format: in vivo; conditions: mean, N = 5 × 100 seeds, seed lot IN153
Description: The effect of compounds of Formula (I) on germination of Orobanche cumana Wallr. seeds was evaluated on glass fiber filter paper (GFFP) in petri dishes. Seeds were preconditioned at moisture and suitable temperature to become responsive to the specific chemical germination stimulants.
Test compounds were dissolved in DMSO (10 000 mg l^−1) and stored at room temperature in a desiccators with desiccants. The stock solutions were dissolved with deionised water to the appropriate final test concentration.
Seeds of O. cumana race ‘F’ (IN153) were collected from a sunflower field in Manzanilla (Seville, Spain) in 2006 and stored at room temperature. To separate seeds from heavy organic debris, a modified sucrose floatation technique as described by Hartman & Tanimonure (Plant Disease (1991), 75, p. 494) was applied. Seeds were filled into a separation funnel and stirred in water. When seeds floated to the surface, the water fraction containing heavy debris was discarded. Seeds were re-suspended in 2.5M sucrose solution (specific gravity of 1.20) and heavy debris was allowed to settle down for 60 min After removing debris, seeds were disinfected in 1% sodium hypochlorite solution and 0.025% (v/v) Tween 20 for 2 min. The seeds were decanted onto two layers of cheesecloth, rinsed with sterile deionised water and re-suspended in sterile deionised water. Two ml of the seed suspension containing approximately 150-400 seeds were spread evenly on two layers of sterile glass fiber filter paper disc ([…]) in Petri dishes (Ø9 cm). After wetting the discs with 3 ml sterile deionised water, petri dishes were sealed with parafilm. Seeds were incubated for 10 days at 20° C. in the dark for seed conditioning. The upper disc with conditioned seeds was briefly dried, transferred to a petri dish lined with a dry GFFP disc, and wetted with 6 ml of the appropriate test solution. The compounds of Formula (I) were tested at concentrations of 0.001, 0.01, 0.1, or 1 mg l^−. The strigolactone analogue GR24 was included as positive control and 0.01% DMSO as negative control. All treatments were tested in five replicates. Seeds were re-incubated at 20° C. in the dark and examined for germination 10 days later. The radicles of germinated seeds were stained for 5 min with blue ink (MIGROS, Switzerland) in 5% acetic acid according to Long et al. (Seed Science Research (2008), 18, p. 125). After staining, seeds were photographed using a camera stand mounted with a digital SLR camera (Canon EOS 5D). Germination of 100 seeds per replicate was evaluated on digital images. Seeds were considered germinated when the radicle protruded from the seed coat.

[2] = test system: Brassica oleracea cv Botrytis (temperate cauliflower) seeds; test: Paper germination test, temperate cauliflower seeds, 10° C. in the light; format: in vivo; conditions: 25 μM, sets A and B separate experiments
Description: The effect of compounds of Formula (I) on the germination of Brassica oleracea cv Botrytis or common cauliflower was tested on two types of cauliflowers: temperate types and tropical types. These two types were chosen because they display different sensitivities to the light conditions and temperature during germination. Germination of a sensitive temperate type is inhibited by light at 10° C. while for the tropical types germination at 20° is stimulated by the presence of light.
The temperate seed batches tested are part of commercially produced seed batches of various varieties which are known to be sensitive to light at 10° C. These seeds were harvested and cleaned according standard commercial procedures. Ready seed batches were used (Ready indicates the processing level of these seeds: they have been cleaned and sized but received no other treatments). The tropical seed batches tested are part of seed batches produced as basic seed (for maintenance of the parental line) and were processed accordingly.
Germination was assessed using the standard paper germination test for Brassica: Fifty seeds were placed on blue germination paper, which was moistened with the appropriate solutions, in closed oblong germination boxes. Each condition was tested in duplo. Germination boxes were placed in controlled germination cabinets with the appropriate temperature and light conditions. Germination of seeds was counted at regular intervals. Seeds were considered to be germinated when the radical had protruded the testa and endosperm (radical size approximately 1 mm)
Test compounds were dissolved in DMSO at a concentration of 50 mM and stored at −20° C. The strigolactone analogue GR24 (commercially available as a racemic mixture of 2 diastereoisomers, referred to as “synthetic strigolactone GR-24” and first prepared by Johnson A. W. & all, Journal of the Chemical Society, Perkin Transactions 1, 1981, page 1734-1743) was included as positive control. Germination solutions were prepared by diluting the stock solutions with demineralized water till 25 μM. As control solutions demineralized water and a 0.05% v/v DMSO solution were used.

[3] = Table B2, concentration 0.01 mg 1^−1, DMSO control 2.4% germination
[4] = Table B2, concentration 0.1 mg 1^−1, DMSO control 2.4% germination
[5] = Table B2, concentration 1 mg 1^−1, DMSO control 2.4% germination
[6] = temperate cauliflower Spacestar seed batch 11B313 (cold-sensitive)
[7] = temperate cauliflower Spacestar seed batch 11B314 (not cold sensitive)
[8] = Table B1, concentration 0.001 mg 1^−1, DMSO control 0.4% germination
[9] = Table B1, concentration 0.1 mg 1^−1, DMSO control 0.4% germination
[10] = Table B1, concentration 1 mg 1^−1, DMSO control 0.4% germination
[11] = Table B3, concentration 0.001 mg 1^−1, DMSO control 0% germination
[12] = Table B3, concentration 0.01 mg 1^−1, DMSO control 0% germination
[13] = Table B3, concentration 0.1 mg 1^−1, DMSO control 0% germination

CC1=CC(O/C=C2\CC(=O)N(C)C2=O)OC1=O (centres unmarked) [I-7, (3E)-1-methyl-3-[(4-methyl-5-oxo-2H-furan-2-yl)oxymethylene]pyrrolidine-2,5-dione]
Germination (%) [1, 3]: 1% | Germination (%) [1, 4]: 1.4% | Germination (%) [1, 5]: 17.2%

CC1=CC(O/C=C2\CCN(c3ccccc3)C2=O)OC1=O (centres unmarked) [I-3, (3E)-3-[(4-methyl-5-oxo-2H-furan-2-yl)oxymethylene]-1-phenyl-pyrrolidin-2-one]
Germination (%) [1, 3]: 0% | Germination (%) [1, 4]: 1.6% | Germination (%) [1, 5]: 19.2%

CC1=CC(O/C=C2\CCCCNC2=O)OC1=O (centres unmarked) [Ia-13, (3E)-3-[(4-methyl-5-oxo-2H-furan-2-yl)oxymethylene]azepan-2-one]
Germination (%) ([1]; Table B5, concentration 0.01 mg 1^−1 (second column), DMSO control 1.4% germination): 34.2% | Germination (%) ([1]; Table B5, concentration 0.01 mg 1^−1 (third column), DMSO control 1.4% germination): 25.6% | Germination (%) ([1]; Table B5, concentration 1 mg 1^−1, DMSO control 1.4% germination): 70% | Gmax (%), total germination as percentage of sown seeds [2, 6]: 42.3% | stimulation (%), extra germination compared to the DMSO treatment, as percentage of the germination in the DMSO treatment [2, 6]: −21.8% | Gmax (%), total germination as percentage of sown seeds [2, 7]: 92.5% | stimulation (%), extra germination compared to the DMSO treatment, as percentage of the germination in the DMSO treatment [2, 7]: 7.6%

CC1=CC(O/C=C2/C(=O)NC3CCCC23)OC1=O (centres unmarked) [Ia-2, (3E)-3-[(4-methyl-5-oxo-2H-furan-2-yl)oxymethylene]-1,3a,4,5,6,6a-hexahydrocyclopenta[b]pyrrol-2-one]
Germination (%) [1, 3]: 75.4% | Germination (%) [1, 4]: 65.4% | Germination (%) [1, 5]: 83.4%

CC1=C[C@H](O/C=C2/C(=O)N[C@@H]3C=CC[C@H]23)OC1=O [Ia-1′, (3E,3aR,6aR)-3-[[(2R)-4-methyl-5-oxo-2H-furan-2-yl]oxymethylene]-1,3a,4,6a-tetrahydrocyclopenta[b]pyrrol-2-one]
Germination (%) ([1]; Table B6, concentration 0.001 mg 1^−1, DMSO control 2.4% germination): 68.0% | Germination (%) ([1]; Table B6, concentration 0.1 mg 1^−1, DMSO control 2.4% germination): 55.3% | Germination (%) ([1]; Table B6, concentration 1 mg 1^−1, DMSO control 2.4% germination): 54.8%

CC1=CC(O/C=C2\CC(C)N(c3ccccc3)C2=O)OC1=O (centres unmarked) [I-4, (3E)-5-methyl-3-[(4-methyl-5-oxo-2H-furan-2-yl)oxymethylene]-1-phenyl-pyrrolidin-2-one]
Germination (%) [1, 3]: 0.6% | Germination (%) [1, 4]: 1% | Germination (%) [1, 5]: 18.2%

CC1=CC(O/C=C2/C(=O)N(C(=O)OC(C)(C)C)C3C=CCC23)OC1=O (centres unmarked) [Ib-1, tert-butyl (3E)-3-[(4-methyl-5-oxo-2H-furan-2-yl)oxymethylene]-2-oxo-4,6a-dihydro-3aH-cyclopenta[b]pyrrole-1-carboxylate]
Germination (%) [1, 8]: 0% | Germination (%) [1, 9]: 25.8% | Germination (%) [1, 10]: 92.6%

CC1=CC(O/C=C2\CCNC2=O)OC1=O (centres unmarked) [Ia-8, (3E)-3-[(4-methyl-5-oxo-2H-furan-2-yl)oxymethylene]pyrrolidin-2-one]
Gmax (%), total germination as percentage of sown seeds [2, 6]: 77.0% | stimulation (%), extra germination compared to the DMSO treatment, as percentage of the germination in the DMSO treatment [2, 6]: 42.6% | Gmax (%), total germination as percentage of sown seeds [2, 7]: 93.0% | stimulation (%), extra germination compared to the DMSO treatment, as percentage of the germination in the DMSO treatment [2, 7]: 8.1%

CC1=CC(O/C=C2\CCN(C(=O)OC(C)(C)C)C2=O)OC1=O (centres unmarked) [Ib-8, tert-butyl (3E)-3-[(4-methyl-5-oxo-2H-furan-2-yl)oxymethylene]-2-oxo-pyrrolidine-1-carboxylate]
Germination (%) [1, 3]: 0.2% | Germination (%) [1, 4]: 2.8% | Germination (%) [1, 5]: 1.4%

CC1=CC(O/C=C2\CCCCN(C(=O)OC(C)(C)C)C2=O)OC1=O (centres unmarked) [Ib-13, tert-butyl (3E)-3-[(4-methyl-5-oxo-2H-furan-2-yl)oxymethylene]-2-oxo-azepane-1-carboxylate]
Germination (%) ([1]; Concentration 0.01 mg l^-1, 10 days at 20° C. in the dark): 48% | Germination (%) ([1]; Concentration 0.01 mg l^-1 as printed, 10 days at 20° C. in the dark): 83% | Germination (%) ([1]; Concentration 1 mg l^-1, 10 days at 20° C. in the dark): 90.8%

CC1=CC(O/C=C2\CCC(c3ccccc3)NC2=O)OC1=O (centres unmarked) [Ia-12, (3E)-3-[(4-methyl-5-oxo-2H-furan-2-yl)oxymethylene]-6-phenyl-piperidin-2-one]
Germination (%) [1, 11]: 93.3% | Germination (%) [1, 12]: 86.8% | Germination (%) [1, 13]: 92.4%

CC1=CC(O/C=C2\CC(C)N(C(=O)OC(C)(C)C)C2=O)OC1=O (centres unmarked) [Ib-6, tert-butyl (3E)-5-methyl-3-[(4-methyl-5-oxo-2H-furan-2-yl)oxymethylene]-2-oxo-pyrrolidine-1-carboxylate]
Germination (%) [1, 8]: 0.4% | Germination (%) [1, 9]: 1.8% | Germination (%) [1, 10]: 5.6%

CC1=CC(O/C=C2/C(=O)N(C(=O)OC(C)(C)C)C3CCCC23)OC1=O (centres unmarked) [Ib-2, tert-butyl (3E)-3-[(4-methyl-5-oxo-2H-furan-2-yl)oxymethylene]-2-oxo-4,5,6,6a-tetrahydro-3aH-cyclopenta[b]pyrrole-1-carboxylate]
Germination (%) [1, 8]: 0% | Germination (%) [1, 9]: 18.2% | Germination (%) [1, 10]: 54.8%

CC1=CC(O/C=C2\CC(c3ccccc3)N(C(=O)OC(C)(C)C)C2=O)OC1=O (centres unmarked) [Ib-10, tert-butyl (3E)-3-[(4-methyl-5-oxo-2H-furan-2-yl)oxymethylene]-2-oxo-5-phenyl-pyrrolidine-1-carboxylate]
Germination (%) [1, 11]: 72.8% | Germination (%) [1, 12]: 72.4% | Germination (%) [1, 13]: 71.8%

CC1=CC(O/C=C2\CCC(c3ccccc3)N(C(=O)OC(C)(C)C)C2=O)OC1=O (centres unmarked) [Ib-12, tert-butyl (3E)-3-[(4-methyl-5-oxo-2H-furan-2-yl)oxymethylene]-2-oxo-6-phenyl-piperidine-1-carboxylate]
Germination (%) [1, 11]: 91% | Germination (%) [1, 12]: 89% | Germination (%) [1, 13]: 90.2%

CC1=CC(O/C=C2\CCCN(c3ccccc3)C2=O)OC1=O (centres unmarked) [I-5, (3E)-3-[(4-methyl-5-oxo-2H-furan-2-yl)oxymethylene]-1-phenyl-piperidin-2-one]
Germination (%) [1, 3]: 1% | Germination (%) [1, 4]: 0% | Germination (%) [1, 5]: 42.2%
